The IC50 is the concentration needed to halve the response being measured. A high value points to lower potency.

These results are taken from US20080214844A1, “Icaritin and desmethylicaritin as anti-cancer agents” (priority 2007, published 2008).

In assay [1] the test system is Widr. In words: MTT cell viability assay, Widr. The note with it: Homo sapiens, 72 h, Colon, 3 days culture. The format is cell-based, human. Here is the method:
(§1) 26 cancer cell lines were grown in normal growth medium in the presence of different concentrations Icaritin or Desmethylicaritin. After culture for 3 days, the cell viability was then measured by an MTT assay. […] Some EC50s were lower than 10 uM for these two compounds. […] Whereas, normal human mammary gland epithelial cells (MCF10A) were not sensitive to Icaritin and Desmethylicaritin. These cells grew well when treated with these two compounds at a concentration of 50 uM.
On the technique in general: Tetrazolium dyes change colour on reduction, which living cells bring about.

Assay [2] has as its system CCL-225. In words: MTT cell viability assay, CCL-225. The note with it: Homo sapiens, 72 h, CCL-225, Colon, 3 days culture. The format is cell-based, human. As to the method: as §1
Assay [3] relates to A549. The assay can be described thus: MTT cell viability assay, A549. The format is cell-based, human. The note with it: Homo sapiens, 72 h, A549, Lung, 3 days culture. As to the method:
as §1

Assay [4] has as its system AU-565. In words: MTT cell viability assay, AU-565. The format is cell-based, human. Conditions: Homo sapiens, AU565, 72 h, AU-565, Breast, 3 days culture. As to the method:
as §1

Assay [5] has as its system 786-O. The assay can be described thus: MTT cell viability assay, 786-O. The format is cell-based, human. The note with it: Homo sapiens, 786-0, 72 h, Kidney, 3 days culture. Here is the method:
as §1

Assay [6] has as its system SKOV3. The assay can be described thus: MTT cell viability assay, SKOV3. The format is cell-based, human. The note with it: Homo sapiens, SK-OV-3, 72 h, SKOV3, Ovary, 3 days culture. Here is the method: as §1
Assay [7] concerns Mid PaCa-2. The assay can be described thus: MTT cell viability assay, Mid PaCa-2. The format is cell-based, human. The note with it: Homo sapiens, 72 h, Mid PaCa-2, Pancreas, 3 days culture. Here is the method:
as §1

Assay [8] has as its system U-251. The assay can be described thus: MTT cell viability assay, U-251. The format is cell-based, human. Conditions: Homo sapiens, 72 h, U-251, Glioblastoma, 3 days culture. As to the method: as §1
For assay [9], the system named is FAS protein levels in LNCaP cells. The assay can be described thus: Western blot analysis for FAS protein levels. The format is cell-based, human. A general note: A western blot detects proteins with antibodies after separation by electrophoresis.
Assay [10] relates to human micro vessel endothelial cell (HMVECs). The assay can be described thus: HMVEC proliferation assay. The format is cell-based. As to the method:
Icaritin is a potent inhibitor of angiogenesis. Inhibition of human micro vessel endothelial cell (HMVECs) proliferation by Icaritin was investigated. HMVEC proliferation in response to Icaritin was determined using a modified method from previously described procedures. Briefly, HMVECs fed 1 day before use (with a fresh media exchange to obtain optimal growth conditions) were trypsinized and resuspended at 5×10^4 cells/ml in EBM (Clonetics)+2% FBS+gentamicin. An equivalent number of cells (2.5×10^3) in 50 μl cell suspension was plated nonconfluently onto each well of a 96-well plate and allowed to adhere for 4 h at 37° C. Serial Icaritin dilutions were prepared in this media at 3× concentration, of which 50 μl was added to the 100 μl cell suspension already in the wells, resulting in 150 μl 1× dilutions. The plate was incubated for up to 72 h at 37° C. […] Absorbance was read at 490 nm on an ELISA plate reader with Microplate Manager (Bio-Rad, Richmond, Calif.). Proliferation curves for HMVECs were determined, and measurements were obtained and compared in the log proliferation phase, which was 3 days (t=72 h) for the conditions described. […]

In assay [11] the test system is HMVEC tube formation. In words: HMVEC tube formation on Matrigel. The format is cell-based, human. The note with it: 18 hours. As to the method:
Endothelial cell tube formation in Matrigel is one measure of angiogenesis in vitro. The role of Icaritin in angiogenesis was assessed by determining the inhibition of HMVEC tube formation on Matrigel matrix plated onto 96-well plates. The HMVEC tube formation assay was performed as described previously. Briefly, 96-well plates were coated with 90 μL Matrigel (10 mg/mL, Collaborative Research) and incubated at 37° C. for 30 minutes to promote gelling. HMVECs (10,000 cells/sample) were resuspended in reduced growth medium (serum concentration 1% and 5 units/mL heparin) and added to each well with the indicated reagents in a final volume of 100 μL with different concentration of Icaritin. After 18 hours, the plates were fixed with Diff-Quik and at least four randomly selected fields per experimental condition were digitally recorded under bright-field illumination using a 10× objective. The mean additive length of all of the cords present in each optical field was measured using IPLab software and compared with controls using the Student's unpaired t test.

The subject of assay [12] is human colon cancer. The assay can be described thus: Human colon cancer xenograft model. The format is in vivo. From the text:
ICA was extensively biotransformed and converted to at least three metabolites: Icariside II (molecule weight=514), Icaritin (molecule weight=368), and Desmethylicaritin (molecule weight=354). […] Icaritin and Desmethylicaritin have huge potentials to be developed as novel and broad anti cancer drugs.
FIG. 3. Response of Human Colon tumor to treatment with Icaritin and Desmethyliciarityn.

On to `COc1ccc(-c2oc3c(CC=C(C)C)c(O)cc(O)c3c(=O)c2O)cc1` [Icaritin], for which the IC50 worked out at 10.6 µM in [1]; 8.8 µM in assay [2]; 10.6 µM in [3]; 7.9 µM in [4]; 10.5 µM in [5]; 9.8 µM in assay [6]. In addition, the values for the IC50 in assay [7] and in assay [8] were 8.1 µM and 7.1 µM, respectively. Moreover, the “FAS protein levels (Western blot)” value in assay [9] is recorded as “did not influence”. Further, the “inhibition of proliferation and inducing cell apoptosis” value in [10] (10 uM, HUVECs and HMVECs) is “significant levels of inhibition”. The EC50 was found to be 8.7 µM in [10] (Homo sapiens, HMVEC, 72 h, Cell Titer 96 Aqueous assay, read-out: EC50, inhibition of HMVEC proliferation) and 5.8 µM in assay [11] (Homo sapiens, HMVEC, read-out: EC50 to inhibit HMVEC tube formation). Also, in assay [11] (10 uM), the HMVEC tube formation entry is recorded as “completely inhibited”. Besides, the “human colon cancer cell growth in vivo” value in assay [12] is given as “strongly inhibiting”.
